Test results published in patent US12673039B2, “Methods of inducing autophagy using coumarin derivatives and related compounds” (Buck Institute for Research on Aging, priority 2019, dated 2026).

Each molecule was assayed on TFEB (assay: TFEB activation screen, % activation/control at 24 and 48 hrs (Table 1)). Conditions: Homo sapiens, 24 h.
Assay type: cell-based, human
Experimental: FIG. 25, panels A-B::AIC106 identified as a lead compound in a TFEB-transcription based screen. Panel A) Rat Neuronal N27 cells were transfected with a vector construct driving expression of secreted-Gaussia luciferase (Sec-Gaussia) in control of 2 kb human TFEB promoter. Next day, cells were seeded into 96-well cell culture plate and exposed to compounds (30 μM) from natural product library (NPL-640) or DMSO-control. After 24 and 48 hours of compound treatment supernatant from the cells was collected and TFEB promoter activity determined by quantifying luciferase activity. Panel B) Effects of AIC106 treatment on HLH-30 expression after 24 hours treatment were determined by immunoblot against GFP in young adult stage of GFP-tagged HLH-30 strain (MAH235) following total protein extraction.
It was discovered that small structural alterations in the C1 compound can have significant effects on the degree of TFEB activation (see, e.g., FIG. 17) the screening systems described herein identified a number of structures related to C1 that similarly induce TFEB.
In vitro drug screening studies. […] We utilized for these studies a 3000 compound natural product derivative library (Timtec, Newark, DE) in […] transfected with a sensitive TFEB promotor-Gaussian luciferase construct. […] C1 is a coumarin-related compound, part of a family of natural benzopyrones found in many edible plants.
To identify novel transcriptional inducers of TFEB, we transfected rat neuronal N27 cells with a vector driving expression of secreted-luciferase under control of the human TFEB promoter. […] AIC106 belongs to a family of coumarin compounds containing an active benzopyrone ring.

In order of falling activity at 30 µM:
1. O=c1oc2ccc(Br)cc2c(-c2ccc(Cl)cc2)c1-c1ccc(Cl)cc1Cl [C4]  432%
2. C=CCOc1ccc2c(-c3ccccc3)c(-c3cccc(Br)c3)c(=O)oc2c1 [E4]  400%
3. Cc1ccc2c(-c3ccccc3)c(-c3ccc(Br)cc3)c(=O)oc2c1 [B4]  390%
4. Cc1cc2oc(=O)c(-c3ccc(Br)cc3)c(-c3ccccc3)c2cc1Cl [G4]  390%
5. COc1ccc(-c2c(-c3ccccc3)c3ccc(O)cc3oc2=O)c(Cl)c1OC [D3]  381%
6. O=c1oc2ccc(Cl)cc2c(-c2ccccc2)c1-c1ccccc1Cl [D4]  369%
7. O=CC1Cc2cc3c4c(c2OC1=O)CCCN4CCC3 (centres unmarked) [E6]  367%
8. O=c1oc2ccc(Br)cc2c(-c2ccccc2)c1-c1cccc(Cl)c1 [F4]  365%
9. O=c1oc2ccc(Br)cc2c(-c2ccc(Cl)cc2)c1-c1ccc(Cl)cc1 [G3]  365%
10. Cc1cc2oc(=O)c(-c3ccc(Cl)cc3Cl)c(-c3ccccc3)c2cc1Cl [A4]  361%
11. O=c1oc2ccc(Cl)cc2c(-c2ccc(Cl)cc2)c1-c1ccc(Cl)cc1 [H3]  361%
12. Cc1cc2oc(=O)c(-c3ccc(Cl)cc3Cl)c(-c3ccc(Cl)cc3)c2cc1Cl [D6]  360%
13. O=c1oc2ccc(Br)cc2c(-c2ccccc2)c1-c1ccccc1Cl [E3]  347%
14. O=c1oc2ccccc2c(-c2ccccc2)c1-c1ccccc1 [H4]  346%
15. COc1ccc(-c2c(-c3ccccc3)c3ccc(O)cc3oc2=O)c(Cl)c1 [F2]  341%
16. O=c1oc2cc(O)ccc2c(Cc2ccccc2)c1-c1ccccc1 [G2]  341%
17. O=c1oc2ccccc2c(-c2ccccc2)c1-c1ccc(Cl)cc1Cl [B3]  338%
18. O=C(O)C1Cc2cc3c4c(c2CC1=O)CCCN4CCC3 (centres unmarked) [D2]  336%
19. O=c1oc2cc(O)ccc2c(-c2ccccc2)c1-c1cccc(Cl)c1 [H2]  334%
20. O=c1oc2c(Br)cc(Cl)cc2c(-c2ccccc2)c1-c1ccc(Br)cc1 [B2]  331%
21. CC(C)(C)OC(=O)C1Cc2cc3c4c(c2OC1=O)CCCN4CCC3 (centres unmarked) [C3 ST083673]  328%
22. O=c1oc2cc(O)ccc2c(Cc2ccc(Cl)cc2)c1-c1ccccc1 [A3]  324%
23. O=c1oc2cc(O)cc(-c3ccccc3)c2cc1-c1ccccc1Cl [C3 ST081388]  317%
24. O=c1oc2cc(O)ccc2c(-c2ccccc2)c1-c1ccccc1 [C2]  311%
25. O=c1oc2ccc(Br)cc2c(-c2ccccc2Cl)c1-c1cccc(Cl)c1 [F3]  302%
26. O=C(O)c1ccccc1-c1c2ccc(=O)cc-2oc2cc(O)ccc12 [A2]  293%
27. O=c1oc2c(Cl)cc(Cl)cc2c(-c2ccccc2)c1-c1ccc(Cl)cc1Cl [F5]  105%
28. O=c1oc2c(Cl)cc(Cl)cc2c(-c2ccc(Cl)cc2)c1-c1ccccc1 [C6]  104%
29. Cc1cc2oc(=O)c(-c3ccc(Cl)cc3)c(-c3ccc(Cl)cc3)c2cc1Cl [D5]  103%
30. O=c1oc2ccc(Br)cc2c(-c2ccccc2)c1-c1ccc(Br)cc1 [E5]  92.5%
31. Cc1ccc2oc(=O)c(-c3ccc(Cl)cc3Cl)c(-c3ccc(Cl)cc3)c2c1 [B6]  91.2%
32. O=c1oc2c(Cl)cc(Cl)cc2c(-c2ccccc2)c1-c1ccccc1 [C5]  87.2%
33. O=c1oc2ccc(Cl)cc2c(-c2ccccc2)c1-c1ccc(Cl)cc1Cl [B5]  83.2%
34. Cc1cc2oc(=O)c(-c3ccccc3Cl)c(-c3ccccc3)c2cc1Cl [A6]  76.6%
35. Cc1ccc2oc(=O)c(-c3ccccc3)c(-c3ccccc3)c2c1 [H5]  70.1%
36. O=c1oc2ccccc2c(-c2ccccc2)c1-c1cccc(Br)c1 [G5]  65.1%
37. Cc1cc2oc(=O)c(-c3ccccc3)c(-c3ccccc3)c2cc1Cl [A5]  62.3%

These molecules were tested against T1, DAF-12 (Caenorhabditis elegans, UniProt G5EFF5) (assay: Mammalian one-hybrid DAF-12 activity assay (HEK293T)). Conditions: compound alone.
T1 construct: expressed in transfected cells; host or cells: HEK293T
T1 sequence (G5EFF5 516-753 limits assumed): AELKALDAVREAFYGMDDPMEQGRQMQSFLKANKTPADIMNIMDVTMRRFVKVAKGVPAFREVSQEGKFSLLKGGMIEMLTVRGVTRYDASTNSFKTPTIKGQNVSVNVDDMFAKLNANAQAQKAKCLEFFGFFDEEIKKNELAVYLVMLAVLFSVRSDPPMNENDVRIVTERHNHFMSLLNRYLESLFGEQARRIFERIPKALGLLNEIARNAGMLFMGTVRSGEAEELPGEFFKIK
Assay type: cell-based, human
Experimental: FIG. 10 illustrates that coumarin 106 (“C1”, “AIC106”) inhibits induction of the worm FXR homologue DAF-12. The ability of C1 (10 μM) to inhibit activation of the FXR worm homologue DAF-12 by its ligand dafachronic acid (Df acid); values are fold activity induction versus untreated controls; ****p<0.01 versus GW; **p<0.05 versus GW.
FIG. 22, panels A-H: AIC106-induced HLH-30 expression is mediated by the nuclear hormone receptor DAF-12. Panel A) The upstream promoter region (2 kB) of hlh-30 was analyzed by JASPAR CORE database to determine DAF-12 binding sites (1: SEQ ID NO:1, 2: 1: SEQ ID NO:2, 3: SEQ ID NO:3, 4: SEQ ID NO:4, 5: SEQ ID NO:5, 6: SEQ ID NO:6, 7: SEQ ID NO:7, 8: SEQ ID NO:8, 9: SEQ ID NO:9, 10: SEQ ID NO:10, 11: SEQ ID NO:11, 12: SEQ ID NO:12). Panel B) Relative fold change in mRNA of hlh-30 compared to DMSO-control was quantified using qRT-PCR in young adult wild-type N2 and daf-12(rh61rh411) worms post-24 hours treatment with AIC106. [N=3 independent experiments (mean±SD). **p<0.01, by one-way ANOVA with Sidak's multiple comparisons test]. Panel C) Effects of AIC106 on DAF-12 activity was determined in a mammalian one-hybrid assay by quantifying changes in the luciferase activity of DAF-12 ligand (dafachronic acid, DA) induced treatment. [N=3 independent experiments (mean±SD). *p<0.05 **p<0.01 and ***p<0.001, by one-way ANOVA with Tukey's multiple comparisons test]. Panel D) Schematic diagram showing that addition of AIC106 or inhibition of DAF-12 ligand synthesis, which leads to un-liganded DAF-12 may result in enhanced HLH-30 expression. Panel E) Dafadine-A (DFA), a specific inhibitor of key enzyme required for synthesis of DAF-12 ligand induces HLH-30 expression. Immunoblot for GFP was performed on protein lysate of HLH-30; GFP (MAH235) young adult worms treated with DFA or DMSO-control for 24 hours. Panel F) Protection against mitochondrial toxin (FCCP) was determined by quantifying survival of young adult worms treated 24 hours with DFA or DMSO-control. [N=3 independent experiments (mean±SD). **p<0.01, by two-way ANOVA with Tukey's multiple comparisons test]. Panel G) Motor function in day-7 NL5901 worms were quantified by scoring number of thrashes for an individual worm over the period of 30 seconds (dots) in DFA and DMSO-control treatment. [N=3 independent experiments (mean±SD). **p<0.01, by unpaired t-test] […] [N=3 independent experiments (mean±SD). *p<0.05, by one-way ANOVA with Tukey's multiple comparisons test].
FIG. 29, panels A-C: AIC106 modulates DAF-12 activity. […] Luciferase activity was measured to quantify DAF-12 activity. Panel C) Dose dependent increase in DAF-12 activity after treatment with known DAF-12 ligand, dafachronic acid (DA) was determined by quantifying luciferase activity. […]

For dafachronic acid [reference compound], the “DAF-12 activity (luciferase)” value was “increase DAF-12 activity in a dose dependent manner”.
